Measurements taken from US10782295B2, “Cysteine-reactive ligand discovery in proteomes” (THE SCRIPPS RESEARCH INSTITUTE, priority 2013, dated 2020).

Tested on: JNK pathway activation
Test: Western blotting of phospho-JNK in WT-ZAK-transfected HEK-293T cells
Format: cell-based, human
Method: We next set out to assess the functional effects of HNE modification of ZAK in human cells. HEK-293T cells were stably transfected with cDNAs for WT-ZAK, C22A-ZAK, or K45M-ZAK and the activation state of their MAPK signaling pathways was monitored by western blotting with anti-phosphoprotein antibodies. […] We next treated cells with H2O2 (1 mM, 30 min) to induce oxidative stress, a process that is known to activate the JNK pathway^41,42. H2O2 treatment stimulated JNK activity in both WT- and C22A-ZAK-transfected cells (but not K45M-ZAK-transfected cells), with WT-ZAK cells showing the greater level of activation (FIG. 5b,c). […] We interpret these findings to indicate the existence of both ZAK-dependent and ZAK-independent pathways for HNE modulation of JNK activation (FIG. 5d). By modifying C22 on ZAK, HNE blocks the contribution that this kinase makes to the activation of the JNK pathway. […]
Mouse and rabbit monoclonal antibodies against phospho-ERK 1/2 (Thr202/Tyr204), phosphor-SAPK/JNK (Thr183/[…]), phosphor-p38 MAPK (Thr180/[…]) and total ERK 1/2, SAPK/JNK and p38 MAPK were purchased from Cell Signaling Technology. […] Protein band intensities were quantified by ImageJ8 and ratios of phosphor-MAPK over total MAPK were computed. […]

## CCCCCC(O)/C=C/C=O (centres unmarked) [4-HNE, 4-Hydroxynonenal]
50 or 100 μM, 60 min
  JNK activation by HNE alone, WT-ZAK-transfected cells: mostly unaffected
pre-treatment 100 μM, 30 min, then H2O2 1 mM, 30 min
  H2O2-dependent JNK activation, WT-ZAK cells: blocking H2O2-dependent JNK activation
